Measured values: patent US6787527B1, “Methods of preventing and treating HIV infection” (Duke University, priority 1994, dated 2004)

How the values were obtained:
HIV-1-IIIB [1] = assay: HIV-1 infection of PBL, supernatant medium RT activity; type: cell-based; conditions: added at viral inoculation and left in throughout culture
Protocol: (§1) Monocytes and lymphocytes were isolated and cultured as previously described (J. Exp. Med. 174:1477 (1991)). Briefly, monocytes were isolated by sequential ficoll-sodium diazotrate and Percoll gradients with subsequent adherence to cultureware plastic, and then cultured in Dulbecco's modified Eagle medium (GIBCO, Grand Islands, N.Y.) with 10% unheated human serum. Lymphocytes were from ficoll-sodium diazotrate gradients, and were cultured with anti-CD3/anti-CD28 antibody and subsequently IL-2. Reverse transcription (RT) was measured as described (Weinberg et al, J. Exp. Med. 174:1477 (1991)) using a phosphoimager device for quantification. Leukemia cell lines Jurkat, CEM, HL-60, and U937 were obtained from American Type Culture Collection (Rockville, Md.). The cells were cultured in RPMI-1640 with 10% fetal bovine serum (Hyclone, Logan, Utah). Cobalamins were obtained from Sigma Chemical Company (St. Louis, Mo.). The cobalamins had extremely low endotoxin content, as determined by Limulus amebocyte lysate testing (Whitaker Bioproducts, Walkerville, Md.). When tested as a 3 mM solution, the cobalamins had less than 0.25 EU/ml. Cobalamins were not toxic for Mo, Mac, Lym, and leukemia cell line cells, as determined by morphology under phase microscopy, Wright staining of methanol-fixed cells, trypan blue exclusion, and thymidine incorporation were carried out in accordance with standard techniques.
PBL were inoculated with HIV-1-IIIB (MOI ˜0.1) and cultured with the designated cobalamin for 15-25 days. Supernatant medium RT was then measured. Results are provided as RT activity (mean±SEM of triplicates) and are derived from one experiment.

HIV-1-BaL [2] = assay: HIV-1 infection of monocytes / mononuclear phagocytes (Mo, Mac), supernatant medium RT activity; type: cell-based; conditions: for inhibition of productive HIV-1 infection: Mo, Mac, added at viral inoculation and left in throughout culture
Protocol: as §1
Monocytes were inoculated at time zero with HIV-1-Bal (Weinberg et al, J. Exp. Med. 174:1477 (1991)) (MOI ˜0.1)and cultured with the designated cobalamin for 7-14 days. Supernatant medium RT was then measured (Weinberg et al, J. Exp. Med. 174:1477 (1991)). Results are provided as RT activity (mean±SEM of triplicates)and are derived from one experiment.

[3] = molecular target: T1, recombinant CD4 with gp120 from HIV-1-IIIB (UniProt P01730+P04578); assay: CD4-gp120 binding, gp120 from HIV-1-IIIB
T1 construct: gp120 from HIV-1-IIIB
Protocol: (§2) Cobalamins were incubated with CD4 and gp120 from HIV-1-IIIB in wells of microtiter wells, and binding was assessed as previously described. […] Serum from an HIV-1-infected person containing anti-gp120 antibody served as the “positive control”.
(§3) To determine whether cobalamins modified the binding of HIV-1 gp120 to CD4, the abilities of CN-Cbl, OH-Cbl, Me-Cbl, and Ado-Cbl to inhibit binding of recombinant CD4 with gp120 from HIV-1-IIIB or HIV-1-MN were tested (FIG. 2). No inhibition of binding was observed.

HIV-1-IIIB [4] = assay: HIV-1 infection of leukemia cell lines Jurkat, CEM, HL-60, U937, supernatant medium RT activity; type: cell-based; conditions: HL-60, U937 cell lines
Protocol: as §1
Cells of the T lymphoblast cell line Jurkat and CEM, the myeloblast cell line HL-60, and the monoblast cell line U937 were inoculated with HIV-1-IIIB (MOI ˜0.1) and cultured for with the designated cobalamin for 10-20 days. Supernatant medium RT was then measured. Results are provided as RT activity (mean±SEM of triplicates) and are derived from one experiment.

[5] = molecular target: T2, recombinant CD4 with gp120 from HIV-1-MN (UniProt P01730+P05877); assay: CD4-gp120 binding, gp120 from HIV-1-MN
T2 construct: recombinant CD4 with gp120 from HIV-1-IIIB or HIV-1-MN
Protocol: as §2, §3

RT = molecular target: T3, RT (Human immunodeficiency virus type 1 group M subtype B, UniProt P04585); assay: RT activity in cell-free medium; type: biochemical, HIV-1; conditions: 1 to 1000 μM added to cell-free medium containing RT
T3 construct: added to cell-free medium containing RT

[6] = test system: Mo, Mac, PBL, human leukemia cell lines Jurkat, CEM, HL-60, U937; assay: Toxicity for cells (morphology, Wright staining, trypan blue exclusion, thymidine incorporation); type: cell-based; conditions: concentrations ≦600 μM
Protocol: as §1, with “When tested as a 3 mM solution, the cobalamins had less than 0.25 EU/ml.” left out

HIV-1-BaL [7] = assay: Syncytium (multinucleated giant cell) formation in HIV-1-inoculated monocytes; type: cell-based; conditions: 67 μM, HIV-1-BaL MOI ~0.1, 14 days
Protocol: OH-Cbl, Me-Cbl, Ado-Cbl, and CN-Cbl were not toxic for Mo, Mac, PBL, or cells of the human leukemia cell lines Jurkat, CEM, HL-60, or U937 at concentrations ≦600 μM. When added to the cultures of Mo, Mac, or PBL at the time of viral inoculation on day zero and left in throughout the culture period, there was potent inhibition of productive infection as judged by supernatant medium RT activity (see FIG. 1). Further evidence of the cobalamin inhibitory effect was derived from studies examining syncytium formation. Populations of monocytes not inoculated with virus were generally mononuclear, while those inoculated with HIV-1-BaL (MOI ˜0.1) cultured (14 days) without OH-Cbl (67 μM) had numerous multinucleated giant cells (syncytium).

[8] = test system: U1 cells and OM-10.1 cells (HIV-1 integrated provirus); assay: TNF- or PMA-induced viral RT expression in latently-infected leukemia cells; type: cell-based, human; conditions: 250 μM; 500 U/ml TNF or 80 nM PMA; U1 and OM-10.1 cells
Protocol: To determine whether OH-Cbl would inhibit the ability of latently-infected leukemia cells to produce RT after stimulation with tumor necrosis factor (TNF) or phorbol myristate acetate (PMA), U1 (U937 monoblastic cell line with HIV-1 integrated provirus) cells (NIH AIDS Repository) and OM-10.1 cells (HL-60 myelobastic cell line with HIV-1 integrated provirus) (Dr. Clay Smith, Duke University, Durham, N.C.) were treated with 500 U/ml TNF or 80 nM PMA (with or without 250 μM OH-Cbl).

[9] = humans, 5 to 7 grams by bolus intravenous infusion; cited from earlier work

With `C/C1=C2/[N-]C([C@H](CC(N)=O)[C@@]2(C)CCC(=O)NC[C@@H](C)OP(=O)([O-])O[C@H]2[C@@H](O)[C@@H](n3cnc4cc(C)c(C)cc43)O[C@@H]2CO)[C@]2(C)N=C(/C(C)=C3N=C(/C=C4N=C1[C@@H](CCC(N)=O)C\4(C)C)[C@@H](CCC(N)=O)[C@]\3(C)CC(N)=O)[C@@H](CCC(N)=O)[C@]2(C)CC(N)=O.[CH2-][C@H]1O[C@@H](n2cnc3c(N)ncnc32)[C@@H](O)[C@@H]1O.[Co+3]` [Ado-Cbl, adencobalamin] the “inhibition of productive HIV-1 infection” value (HIV-1-IIIB [1]) was “inhibited”, the “inhibition of productive HIV-1 infection” value (HIV-1-BaL [2]) was “inhibited” and the “inhibition of CD4-gp120 binding” value [3] was “No inhibition”. The “inhibition of HIV-1 infection” value (HIV-1-IIIB [4]) was “did not inhibit”, the “inhibition of CD4-gp120 binding” value [5] was “No inhibition” and the “inhibition of RT activity” value (RT) was “inhibition of RT activity was not observed”.

With `C/C1=C2/[N-][C@H]([C@H](CC(N)=O)[C@@]2(C)CCC(=O)NC[C@@H](C)OP(=O)([O-])O[C@H]2[C@@H](O)[C@@H](n3cnc4cc(C)c(C)cc43)O[C@@H]2CO)[C@]2(C)N=C(/C(C)=C3N=C(/C=C4N=C1[C@@H](CCC(N)=O)C\4(C)C)[C@@H](CCC(N)=O)[C@]\3(C)CC(N)=O)[C@@H](CCC(N)=O)[C@]2(C)CC(N)=O.[CH3-].[Co]` [Me-Cbl] the “inhibition of productive HIV-1 infection” value (HIV-1-IIIB [1]) was “inhibited”, the “inhibition of productive HIV-1 infection” value (HIV-1-BaL [2]) was “inhibited” and the “inhibition of CD4-gp120 binding” value [3] was “No inhibition”. The “inhibition of HIV-1 infection” value (HIV-1-IIIB [4]) was “did not inhibit”, the “inhibition of CD4-gp120 binding” value [5] was “No inhibition” and the “inhibition of RT activity” value (RT) was “inhibition of RT activity was not observed”.

For `C/C1=C2/[N-][C@H]([C@H](CC(N)=O)[C@@]2(C)CCC(=O)NC[C@@H](C)OP(=O)([O-])O[C@H]2[C@@H](O)[C@@H](n3cnc4cc(C)c(C)cc43)O[C@@H]2CO)[C@]2(C)N=C(/C(C)=C3N=C(/C=C4N=C1[C@@H](CCC(N)=O)C\4(C)C)[C@@H](CCC(N)=O)[C@]\3(C)CC(N)=O)[C@@H](CCC(N)=O)[C@]2(C)CC(N)=O.[Co+3].[OH-]` [OH-Cbl, hydroxocobalamin], the “inhibition of productive HIV-1 infection” value (HIV-1-IIIB [1]) was “inhibited”, the toxicity for cells [6] was “not toxic” and the “inhibition of HIV-1 infection” value (HIV-1-BaL [2]; Mo incubated simultaneously with 250 μM and HIV-1 for 4 hours, washed, cultured 10 days) was “no inhibition”. The “inhibition of subsequent RT production” value (HIV-1-BaL [2]; Mo inoculated and cultured 6 days, washed, then cultured with 250 μM) was “no inhibition”, the “inhibition of RT” value (HIV-1-BaL [2]; Mo pretreated with 250 μM for 24 hours, washed, then inoculated with HIV-1-BaL) was “approximately 80%” and the “inhibition of productive HIV-1 infection” value (HIV-1-BaL [2]) was “inhibited”. The “inhibition of CD4-gp120 binding” value [3] was “No inhibition”, the “inhibition of syncytium formation” value (HIV-1-BaL [7]) was 100% and the “inhibition of HIV-1 infection” value (HIV-1-IIIB [4]) was “did not inhibit”. For the same molecule, the “inhibition of CD4-gp120 binding” value [5] was “No inhibition”, the “inhibition of expression of induced viral RT” value [8] was “did not inhibit” and the “inhibition of RT activity” value (RT) was “inhibition of RT activity was not observed”. For the same molecule, the resultant serum levels [9] was “μM to mM” and the side effects [9] was “minimal”.

For cyanocobalamin [CN-Cbl], the “inhibition of productive HIV-1 infection” value (HIV-1-IIIB [1]) was “little or no inhibitory activity”, the “inhibition of productive HIV-1 infection” value (HIV-1-BaL [2]) was “little or no inhibitory activity” and the “inhibitory effect in vitro” value (HIV-1-BaL [2]; in vitro, summary statement) was “little or no inhibitory effect”. The “inhibition of CD4-gp120 binding” value [3] was “No inhibition”, the “inhibition of CD4-gp120 binding” value [5] was “No inhibition” and the “inhibition of RT activity” value (RT) was “inhibition of RT activity was not observed”.
